Results from US9504676B2, “Molecules inhibiting a metabolic pathway involving the Syk protein tyrosine kinase and method for identifying said molecules” (CENTRE NATIONAL DE LA RECHERCHE SCIENTIFIQUE, priority 2008, dated 2016).

Tested on: Syk mutants (Arg 68, Glu 121, Glu 155)
Assay: Binding of G4G11 with Syk mutants in the ADA method
Design: species or system murine
Details: 5 μM of C-13
From the text: On the basis of this information and the known 3D structure of the peptide complex formed by the SH2 domains of Syk and ITAM motifs^17, the inventors used computing approaches to locate a putative binding site for C-13. A candidate cavity comprising the residues Ser 9, Gln 43, Phe 51, Ile 66, Glu 67, Arg 68, Glu 69, Leu 70, Asn 71, Gly 72, Thr 73, Tyr 74, Ala 75, Glu 121 and Glu 155 of human Syk protein (see FIG. 8A, SEQ ID No. 1) and situated in the vicinity of the G4G11 epitope was identified (FIG. 1C). A structural analysis specified that the residues Ser 9, Gln 43, Phe 51, Arg 68, Glu 121 and Glu 155 could be involved in the binding of the ligand, and could be mutated without impairing the 3D structure of the protein. To validate the cavity in more detail, these six amino acids were mutated individually and the Syk mutants were subjected to the ADA test.
• 1) Chemical products and antibodies. […] The binding of G4G11 with Syk was assessed by adding the 9E10 monoclonal antibody conjugated with HRP detecting the amino acid sequence EQKLISEEDLN of human c-myc protein located at the C-terminal end of the scFv fragment. To generate Syk mutants, targeted mutagenesis was used on GST:Syk 6-242 protein and the binding of G4G11 with the mutants was assessed in the presence of 5 μM of C-13. • 3) Cells, culture conditions and functional tests. […]

In the case of `COC(=O)c1ccccc1-c1ccc(/C=C2/SC(=S)N(Cc3ccccc3)C2=O)o1` [Molecule C-13, methyl 2-{5-[(3-benzyl-4-oxo-2-thioxo-1,3-thiazolidin-5-ylidene)methyl]-2-furyl}benzoate], the “effect of mutation of Arg 68, Glu 121 and Glu 155 of Syk on inhibition of G4G11 binding” value is reported as “cancelled the inhibition”.
